Here are results for 8 molecules from US6726911B1, “Biologically active compounds of Ganoderma pfeifferi DSM 13239” (Ganomycin, priority 1999, dated 2004).

Like-named read-outs stand apart in the source and are kept apart here.

The term IC50 denotes the concentration at which inhibition is half-maximal.

Experiment [1] concerns human hepatoma cells (PLC/PRF/5 cells). Conditions: Hager, reference 66; cited from earlier work.
A further experiment deals with KB cells. The following applies: Hager, reference 66; cited from earlier work.
A further experiment concerns the target T1, CD-14 receptor (Homo sapiens, UniProt P08571).
T1 construct: expressed in transfected cells; host or cells: Chinese hamster ovary cell lines
T1 sequence (P08571 20-345): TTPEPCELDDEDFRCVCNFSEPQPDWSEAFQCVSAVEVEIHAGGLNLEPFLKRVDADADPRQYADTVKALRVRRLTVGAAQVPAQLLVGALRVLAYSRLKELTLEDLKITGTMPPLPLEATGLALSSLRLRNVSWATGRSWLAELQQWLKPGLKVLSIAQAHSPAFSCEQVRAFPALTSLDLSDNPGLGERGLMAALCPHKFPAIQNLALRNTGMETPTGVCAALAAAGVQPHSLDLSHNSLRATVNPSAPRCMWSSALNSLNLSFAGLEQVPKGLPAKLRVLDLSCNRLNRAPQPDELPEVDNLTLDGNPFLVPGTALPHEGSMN
Put plainly: serum-mediated binding of FITC-labeled lipopolysaccharide to CD-14 transfected Chinese hamster ovary cell lines. The class given is cell-based. Conditions: CD14+ cells. The procedure: Methods: The test was performed according to Grunwald (CD-14 als Rezeptor für Endotoxin: in vitro-Untersuchungen zu Bindungsmodalitaten von LPS und zur Beeinflussung der Expression. Dissertation Ernst-Moritz-Arndt-Universität Greifswald 1993). For the tests, cell lines from ovaries of Chinese hamsters were used which express the CD-14 receptor after transfection of the CD-14 gene. The lipopolysaccharide was labeled with FITC so that the binding to the receptor could be determined by measuring the fluorescence intensity.

The subject of experiment [2] is Vibrio anguillarum ATCC 1188. Kind of experiment: agar diffusion test on fish-pathogenic bacteria. The class given is cell-based.
The test system of experiment [3] is oxygen free-radical release. Put plainly: free-radical scavenging by luminol chemiluminescence in zymosan-stimulated human blood. Type of experiment: cell-based. The following applies: 10 μg/ml. As for the experimental part:
The proof was established as follows:
A: […] was preincubated with […] of PBS+luminol (0.33 mM final) at 37° C. for 20 min.
B: 30 μl of human blood was preincubated with […] of PBS+luminol (0.33 mM final) and […] of substance dilution at 37° C. for 20 min.
To A was pipetted 20 μl of a 1:100 dilution of the extract of Example 11 and 20 μl of zymosan (10 mg/ml).
To B was pipetted 20 μl of zymosan (10 mg/ml).
As a control, PBS was used instead of zymosan as a stimulator with and without substance in charges A and B. After intensive mixing, the kinetics of the luminescence were measured over 60 min. The examinations were performed on two different days with blood from two different blood donors.
Methods: The free-radical scavenging function of the active substances of formula 1, ganomycin A and ganomycin B, broadens the possibilities of medicinal use. The proof was established as in the examination of the extracts according to Example 48.

For experiment [4], the system named is Aeromonas salmonicida subsp. salmonicida 67 A 1. Kind of experiment: agar diffusion test on fish-pathogenic bacteria. The class given is cell-based. (Agar diffusion results depend on both activity and mobility in agar.)
For experiment [5], the system named is Aeromonas hydrophila DSM 30019. Kind of experiment: agar diffusion test on fish-pathogenic bacteria. The class given is cell-based.
The test system of a further experiment is influenza virus type A. Put plainly: antiviral activity.
The test system of experiment [6] is peritoneal mast cells of rats. Conditions: 2 mg/ml; Hager, reference 31; cited from earlier work.
In the next experiment the test system is S. haemolyticus. Put plainly: agar diffusion test on pathogens of Gram-positive infections. The following applies: S. haemolyticus (multiresistant strains isolated from patient material).
Another experiment deals with Enterococci. The description is as above. The following applies: Enterococci (multiresistant strains isolated from patient material).
A further experiment deals with S. aureus. Kind of experiment: agar diffusion test.
The target in experiment [7] is angiotensin-converting enzyme (Homo sapiens, UniProt P12821). The following applies: in vitro; Hager, reference 39; cited from earlier work.
Sequence of angiotensin-converting enzyme (P12821 30-1306, species assumed): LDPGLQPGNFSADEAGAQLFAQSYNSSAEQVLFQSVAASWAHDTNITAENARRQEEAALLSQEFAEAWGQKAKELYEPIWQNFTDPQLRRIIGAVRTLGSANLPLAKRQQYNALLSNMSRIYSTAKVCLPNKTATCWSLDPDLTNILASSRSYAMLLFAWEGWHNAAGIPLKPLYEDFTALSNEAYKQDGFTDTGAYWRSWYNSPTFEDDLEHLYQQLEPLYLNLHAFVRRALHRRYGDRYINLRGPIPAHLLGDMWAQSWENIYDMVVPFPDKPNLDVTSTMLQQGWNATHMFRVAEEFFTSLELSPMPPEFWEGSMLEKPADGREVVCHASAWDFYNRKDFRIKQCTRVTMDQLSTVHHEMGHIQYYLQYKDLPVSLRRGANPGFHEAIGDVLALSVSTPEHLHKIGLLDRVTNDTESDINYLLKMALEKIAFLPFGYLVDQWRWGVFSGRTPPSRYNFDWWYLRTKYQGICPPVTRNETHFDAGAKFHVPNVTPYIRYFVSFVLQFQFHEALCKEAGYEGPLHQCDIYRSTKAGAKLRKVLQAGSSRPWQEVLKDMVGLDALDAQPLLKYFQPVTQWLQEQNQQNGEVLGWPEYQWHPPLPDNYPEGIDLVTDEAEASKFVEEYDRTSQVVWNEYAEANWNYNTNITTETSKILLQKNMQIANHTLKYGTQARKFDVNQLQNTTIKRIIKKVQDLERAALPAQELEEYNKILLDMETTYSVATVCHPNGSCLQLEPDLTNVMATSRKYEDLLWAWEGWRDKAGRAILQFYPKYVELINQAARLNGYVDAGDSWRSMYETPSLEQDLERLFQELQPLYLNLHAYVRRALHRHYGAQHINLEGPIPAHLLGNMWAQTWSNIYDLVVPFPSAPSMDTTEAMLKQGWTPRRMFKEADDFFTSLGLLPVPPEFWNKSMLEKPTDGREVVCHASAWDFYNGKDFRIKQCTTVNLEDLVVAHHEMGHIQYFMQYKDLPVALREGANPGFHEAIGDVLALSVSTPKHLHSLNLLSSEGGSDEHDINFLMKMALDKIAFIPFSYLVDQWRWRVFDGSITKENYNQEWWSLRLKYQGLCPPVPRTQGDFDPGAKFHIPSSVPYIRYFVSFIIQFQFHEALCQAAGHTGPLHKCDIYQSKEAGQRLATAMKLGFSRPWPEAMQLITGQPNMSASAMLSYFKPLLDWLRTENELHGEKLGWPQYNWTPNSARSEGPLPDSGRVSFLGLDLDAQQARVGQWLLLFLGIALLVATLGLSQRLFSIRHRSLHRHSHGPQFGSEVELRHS

Procedure for Enterococci: (§1) In the first stage of examination, the agar diffusion test was employed. The extracts and substances to be tested were respectively dissolved using appropriate solvents (dichloromethane, methanol and water) and applied to filter paper sheets in different concentrations. Comparative sheets soaked with 25 μl of the corresponding solvent served as a control. Ampicillin (10 μg/sheet) was employed as a reference substance. The dried filter paper sheets were finally placed onto agar plates. For the basic screening, nutrient agar II (VEB Immunpraparate, Berlin, Germany) was employed, and for the examination on strains isolated from patient material, Mueller-Hinton II agar (Becton Dickinson Microbiology Systems, Cockeysville, USA) was employed. Using an inoculation wire loop, a pinheadful of test germ culture was suspended in 3 ml of a sterile 0.90% NaCl solution. Subsequently, 200 μl of the germ suspension was added to 20 ml of sterile, liquefied and slightly warm nutrient agar and cast into Petri dishes having a diameter of 10 cm. After placing the sheets onto the congealed agar, the plates were preincubated at 8° C. for about 2 to 3 hours, followed by incubation of the plates in an incubator at 37° C. for 24 hours. Micrococcus flavus was an exception. This culture was stored only at room temperature because the germ reaches its optimum growth at 20° C. […]
Procedure for S. aureus: In the first stage of examination, the agar diffusion test was employed. The extracts and substances to be tested were respectively dissolved using appropriate solvents (dichloromethane, methanol and water) and applied to filter paper sheets in different concentrations. Comparative sheets soaked with 25 μl of the corresponding solvent served as a control. Ampicillin (10 μg/sheet) was employed as a reference substance. The dried filter paper sheets were finally placed onto agar plates. For the basic screening, nutrient agar II (VEB Immunpraparate, Berlin, Germany) was employed, and for the examination on strains isolated from patient material, Mueller-Hinton II agar (Becton Dickinson Microbiology Systems, Cockeysville, USA) was employed. Using an inoculation wire loop, a pinheadful of test germ culture was suspended in 3 ml of a sterile 0.90% NaCl solution. Subsequently, 200 μl of the germ suspension was added to 20 ml of sterile, liquefied and slightly warm nutrient agar and cast into Petri dishes having a diameter of 10 cm. After placing the sheets onto the congealed agar, the plates were preincubated at 8° C. for about 2 to 3 hours, followed by incubation of the plates in an incubator at 37° C. for 24 hours. Micrococcus flavus was an exception. This culture was stored only at room temperature because the germ reaches its optimum growth at 20° C.
The evaluation of the plates was effected by measuring the diameters of the inhibition halos. All operations were done under aseptic conditions.
Procedure for S. epidermidis: Methods: Extracts according to Example 9 in a concentration of 2 mg/l were dropped onto standardized test plates for the resistance assay for the commercially available antibiotics amicazin, trimethroprim and fusidinic acid (Sensi-Disk Antibiotics Test Plates, Becton Dickinson Microbiology Systems, Cockeysville, USA). The antibacterial activity was determined according to Example 1 on multiresistant coagulase-negative staphylococci isolated from patient material.
Procedure for S. haemolyticus: as §1

ganoderaldehyde A: the “ED50 for the hepatoma cells” value in [1] was 10.99 µg/mL. Besides, in the experiment on KB cells, the “ED50 for KB cells” value is 9.75 µg/mL.
In the case of `CC(=CCCC(C)=CCCC(=CCc1cc(O)ccc1O)C(=O)O)CO` [Ganomycin A, 2-[2-(2,5-dihydroxyphenyl)ethylidene]-11-hydroxy-6,10-dimethylundeca-5,9-dienic acid], the “inhibition of the lipopolysaccharide binding (in words)” value (“inhibition … (in words)” for short) at CD-14 receptor was “causes inhibition”. Moreover, the results for the “Diameter of inhibition halo” value in experiment [2], in experiment [4] and in experiment [5] were 10 mm, 10 mm and 15 mm, respectively. The “luminol-induced and spontaneous oxygen free-radical release” value in experiment [3] is recorded as “inhibit”.
`C/C(=C\CC[C@@H](C)[C@H]1CC[C@@]2(C)C3=C(CC[C@]12C)[C@@]1(C)CC[C@H](O)C(C)(C)[C@@H]1CC3=O)CO` [Ganoderone B, 3,26-dihydroxylanosta-8,24-diene-7-one]: the “inhibition … (in words)” value at CD-14 receptor was “inhibits”. Also, the “antiviral activity against influenza virus type A” value in the experiment on influenza virus type A is “has antiviral activity”.
Turning to `CC(CC(=O)C[C@@H](C)[C@H]1CC(=O)[C@@]2(C)C3=C(C(=O)C[C@]12C)[C@@]1(C)CCC(=O)C(C)(C)[C@@H]1C[C@@H]3O)C(=O)O` (some centres unmarked) [ganoderic acid D], in experiment [6], the “reduction of 48/80-induced histamine release” value is 80% and the “reduction of Con-A-induced histamine release” value was 80%.
On to ganoderic acid C, for which, in [6], the “reduction of 48/80-induced histamine release” value is 70% and the “reduction of Con-A-induced histamine release” value is 85%.
For `CC(C)[C@@H](C)C=C[C@@H](C)[C@H]1CC[C@H]2C3=CCC4C[C@H](O)[C@@H](O)C[C@]4(C)[C@@]3(O)CC[C@]12C` (stereo partly drawn) [ergosta-7,22-diene-2β,3α,9α-triol], the “ED50 for the hepatoma cells” value in experiment [1] is 1170 µg/mL. Also, in the experiment with KB cells, the “ED50 for KB cells” value was 0.89 µg/mL.
For `CC(C)=CCCC(C)=CCCC(=CCc1cc(O)ccc1O)C(=O)O` [Ganomycin B, 2-[2-(2,5-dihydroxyphenyl)ethylidene]-6,10-dimethylundeca-5,9-dienic acid], the “inhibition … (in words)” value at CD-14 receptor was “causes inhibition”. For the same molecule, the Inhibition halo in the experiment on S. haemolyticus is 12-16 mm; with Enterococci, 10-14 mm; with S. aureus (S. aureus (MRSA strains isolated from patient material)), 10-16 mm; in the experiment with S. aureus (S. aureus ATCC 6538), 30 mm; in the experiment with S. aureus (S. aureus ATCC 25923), 25 mm; with S. aureus (S. aureus ATCC 29213) it was 22 mm. Further, the Inhibition halo is on record as 16 mm in the experiment with S. aureus (S. aureus reference strain “North-German Strain” (Smith Kline Beecham)); 16 mm in the experiment on S. epidermidis (S. epidermidis 125, extract 2 mg/l dropped onto antibiotic test plates); 20 mm in the experiment on S. epidermidis (S. epidermidis 473, extract 2 mg/l dropped onto antibiotic test plates); 16 mm in the experiment with S. epidermidis (S. epidermidis 847, extract 2 mg/l dropped onto antibiotic test plates); 16-20 mm in the experiment with S. epidermidis (S. epidermidis (multiresistant strains isolated from patient material)). The figures for the “Diameter of inhibition halo” value in experiment [2], in experiment [4] and in experiment [5] were 26 mm, 12 mm and 17 mm, respectively. Also, the “luminol-induced and spontaneous oxygen free-radical release” value in experiment [3] is “inhibit”.
As to `CC(=O)O[C@@H]1C(=O)C2=C(C(=O)C[C@H]3C(C)(C)C(=O)CC[C@]23C)[C@]2(C)C(=O)C[C@H]([C@H](C)CC(=O)CC(C)C(=O)O)[C@@]12C` (some centres unmarked) [ganoderic acid F], the IC50 in [7] is 4.7 µM.
